Test results as given in ChEMBL document CHEMBL1201862, “PubChem BioAssay data set” (2004).
Active and inactive are the calls of the source.

Experiments:
[1] = target: Calpain-2 catalytic subunit (Sus scrofa, UniProt P43367); assay: pig calpain II inhibitor potency, dose response, biochemical, fluorogenic peptide substrate (AID 1420); assay type: functional
[2] = target: Tumor necrosis factor (Homo sapiens, UniProt P01375); assay: TNFa-triggered NF-kB activation inhibitors, SAR follow-up, cell-based, revised (AID 2337); assay type: functional
Sequence of Tumor necrosis factor (P01375 whole entry): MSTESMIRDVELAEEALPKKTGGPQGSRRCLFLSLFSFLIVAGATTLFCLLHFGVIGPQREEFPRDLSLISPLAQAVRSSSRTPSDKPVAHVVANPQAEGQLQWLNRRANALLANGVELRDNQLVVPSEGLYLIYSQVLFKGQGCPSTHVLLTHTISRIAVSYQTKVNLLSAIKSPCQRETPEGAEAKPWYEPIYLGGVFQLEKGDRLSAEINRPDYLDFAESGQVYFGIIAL

[3] = test system: HEK293; assay: cells; assay type: functional, cell-based; conditions: Homo sapiens
[4] = test system: BJ; assay: cytotoxicity toward Ras-transformed BJeLR fibroblasts, dose response, cell-based, alamar blue fluorescence, cherrypicked samples (AID 2631); assay type: functional; conditions: Homo sapiens;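 further: confirmatory dose-response assay in RAS-dependent BJ fibroblasts engineered with TERT, LT and ST, with cytotoxicity read by fluorescence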
[5] = target: T1, Nucleotide-binding oligomerization domain-containing protein 1 (Homo sapiens, UniProt Q9Y239); assay: NOD1 signaling inhibitors, SAR follow-up, revised (AID 2333); assay type: functional
T1 sequence (Q9Y239 whole entry): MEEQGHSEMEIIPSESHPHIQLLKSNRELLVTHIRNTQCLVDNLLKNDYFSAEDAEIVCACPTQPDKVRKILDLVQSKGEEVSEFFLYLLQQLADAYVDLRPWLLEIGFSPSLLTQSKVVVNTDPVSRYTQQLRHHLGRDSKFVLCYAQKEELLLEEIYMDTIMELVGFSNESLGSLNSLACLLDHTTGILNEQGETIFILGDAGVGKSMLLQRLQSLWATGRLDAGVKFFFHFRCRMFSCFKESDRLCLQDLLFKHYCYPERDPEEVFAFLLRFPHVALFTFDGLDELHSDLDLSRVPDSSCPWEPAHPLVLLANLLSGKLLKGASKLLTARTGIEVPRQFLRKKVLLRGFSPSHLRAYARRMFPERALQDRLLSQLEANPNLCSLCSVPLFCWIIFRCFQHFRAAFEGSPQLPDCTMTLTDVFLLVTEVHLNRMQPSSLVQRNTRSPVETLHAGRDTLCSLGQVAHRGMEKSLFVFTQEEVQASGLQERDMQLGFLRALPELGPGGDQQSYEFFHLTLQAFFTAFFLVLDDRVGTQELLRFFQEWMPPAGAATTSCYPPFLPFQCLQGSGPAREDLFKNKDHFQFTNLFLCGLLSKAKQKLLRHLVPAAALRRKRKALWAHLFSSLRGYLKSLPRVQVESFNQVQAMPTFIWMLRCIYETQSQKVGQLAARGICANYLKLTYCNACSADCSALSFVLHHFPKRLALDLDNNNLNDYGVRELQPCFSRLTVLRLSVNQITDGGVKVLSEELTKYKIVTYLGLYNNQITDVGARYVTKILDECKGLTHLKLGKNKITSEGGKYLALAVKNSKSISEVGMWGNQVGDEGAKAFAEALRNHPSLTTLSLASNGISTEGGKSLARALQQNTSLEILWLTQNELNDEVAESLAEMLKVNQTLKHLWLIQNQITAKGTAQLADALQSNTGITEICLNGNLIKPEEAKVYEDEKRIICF

[6] = test system: Vero; assay: cells; assay type: functional; conditions: Chlorocebus sabaeus
[7] = test system: BJ; assay: cytotoxicity toward BJ-TERT-LT-ST fibroblasts, dose response, cell-based, RAS-independent, luminescence (AID 1935); assay type: functional; conditions: Homo sapiens;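 further: BJ fibroblasts immortalized with TERT plus LT and ST oncogenes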
[8] = test system: BJ; assay: cytotoxicity toward BJ-TERT fibroblasts, dose response, cell-based, RAS-independent, luminescence (AID 1933); assay type: functional; conditions: Homo sapiens
[9] = cytotoxicity toward DRD oncogenic fibroblasts, dose response, cell-based, non-viral oncogenic, luminescence (AID 1934); assay type: functional; conditions: Homo sapiens
[10] = Luminescent dose response cell-based high throughput screening assay for inhibitors of the Janus kinase 2 mutant JAK2V617F. [Related pubchem assays: 1446 (Primary screen.), 1521 (Confirmation assay.), 1486 (Counter screen.)]; assay type: functional
[11] = test system: HEK293; assay: NOD2 signaling inhibitors in MDP-stimulated cells, cell-based, uHTS, luminescence (AID 2001); assay type: functional; conditions: Homo sapiens
[12] = test system: HEK293; assay: cells; assay type: functional, cell-based; conditions: Homo sapiens; remark: listed apart in the source
[13] = test system: BJ; assay: cells; assay type: functional, cell-based; conditions: Homo sapiens, read-out: EC50
[14] = test system: HEK293; assay: cells; conditions: Homo sapiens
[15] = test system: HEK293; assay: NOD1 signaling inhibitors, primary screen, cell-based, luminescence, uHTS (AID 1578); assay type: functional; conditions: Homo sapiens
[16] = target: T2, Bcl-2-related protein A1 (Mus musculus, UniProt Q07440); assay: Bfl-1 binding inhibitors, SAR follow-up, biochemical, fluorescence polarization (AID 1070)
T2 sequence (Q07440 whole entry): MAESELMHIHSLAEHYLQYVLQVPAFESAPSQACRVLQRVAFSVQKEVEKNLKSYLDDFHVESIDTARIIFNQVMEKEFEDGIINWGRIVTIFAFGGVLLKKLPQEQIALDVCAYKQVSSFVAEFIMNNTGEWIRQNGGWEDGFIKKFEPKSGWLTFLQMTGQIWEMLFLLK

[17] = target: T2, Bcl-2-related protein A1; assay: Bfl-1 inhibitors blocking BH3 peptide binding, confirmation, biochemical, TR-FRET, mouse Bfl-1 (AID 621);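 further: TR-FRET binding of GST-Bfl-1 to FITC-labelled Bid peptide via terbium antibody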
[18] = target: Glyceraldehyde-3-phosphate dehydrogenase (Homo sapiens, UniProt P04406)
Sequence of Glyceraldehyde-3-phosphate dehydrogenase (P04406 whole entry): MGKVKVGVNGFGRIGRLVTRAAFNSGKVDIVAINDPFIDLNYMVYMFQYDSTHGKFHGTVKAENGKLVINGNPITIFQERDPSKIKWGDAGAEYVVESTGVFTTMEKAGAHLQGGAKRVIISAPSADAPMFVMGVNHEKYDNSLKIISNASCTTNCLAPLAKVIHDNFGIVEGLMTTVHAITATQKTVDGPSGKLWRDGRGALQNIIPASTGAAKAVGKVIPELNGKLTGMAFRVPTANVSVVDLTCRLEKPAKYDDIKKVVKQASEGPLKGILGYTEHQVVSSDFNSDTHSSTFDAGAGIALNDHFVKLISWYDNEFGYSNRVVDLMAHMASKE

[19] = target: Photoreceptor-specific nuclear receptor (Homo sapiens, UniProt Q9Y5X4); assay: NR2E3 inverse agonists, dose response, biochemical, TR-FRET (AID 463256); assay type: functional
Sequence of Photoreceptor-specific nuclear receptor (Q9Y5X4 whole entry): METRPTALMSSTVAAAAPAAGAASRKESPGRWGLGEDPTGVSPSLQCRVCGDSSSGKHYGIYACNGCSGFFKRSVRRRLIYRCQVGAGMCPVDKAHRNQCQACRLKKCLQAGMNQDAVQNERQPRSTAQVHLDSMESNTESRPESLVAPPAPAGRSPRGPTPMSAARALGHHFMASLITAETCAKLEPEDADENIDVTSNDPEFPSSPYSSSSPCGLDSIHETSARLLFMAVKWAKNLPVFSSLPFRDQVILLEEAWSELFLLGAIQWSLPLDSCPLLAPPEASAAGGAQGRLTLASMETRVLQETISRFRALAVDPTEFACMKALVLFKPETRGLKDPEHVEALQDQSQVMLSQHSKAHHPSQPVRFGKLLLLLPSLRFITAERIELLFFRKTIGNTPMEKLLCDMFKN

[20] = target: Peroxisome proliferator-activated receptor gamma/Nuclear receptor corepressor 2 (Homo sapiens, UniProt P37231+Q9Y618); assay: Counterscreen for NR2E3 inverse agonists: TR-FRET-based biochemical high throughput dose response assay to identify inverse agonists of the interaction between peroxisome proliferator-activated receptor gamma (PPARg) and nuclear receptor co-repressor 2 (NCOR2).; assay type: functional
Sequence of Peroxisome proliferator-activated receptor gamma/Nuclear receptor corepressor 2 (P37231 whole entry): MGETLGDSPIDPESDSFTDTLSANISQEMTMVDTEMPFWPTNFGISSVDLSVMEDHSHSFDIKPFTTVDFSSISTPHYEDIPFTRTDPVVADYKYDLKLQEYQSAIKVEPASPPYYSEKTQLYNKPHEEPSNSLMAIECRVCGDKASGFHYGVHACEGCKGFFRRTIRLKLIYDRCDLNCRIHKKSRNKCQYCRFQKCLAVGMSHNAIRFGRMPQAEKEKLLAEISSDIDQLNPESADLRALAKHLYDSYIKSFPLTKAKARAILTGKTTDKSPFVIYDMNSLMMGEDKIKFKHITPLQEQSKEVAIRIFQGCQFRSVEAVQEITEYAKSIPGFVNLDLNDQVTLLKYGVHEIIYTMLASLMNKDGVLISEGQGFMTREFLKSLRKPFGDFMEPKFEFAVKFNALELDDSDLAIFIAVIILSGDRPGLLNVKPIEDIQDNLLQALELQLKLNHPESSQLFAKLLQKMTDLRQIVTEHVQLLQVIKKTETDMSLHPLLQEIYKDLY
Sequence of Peroxisome proliferator-activated receptor gamma/Nuclear receptor corepressor 2 (Q9Y618 whole entry): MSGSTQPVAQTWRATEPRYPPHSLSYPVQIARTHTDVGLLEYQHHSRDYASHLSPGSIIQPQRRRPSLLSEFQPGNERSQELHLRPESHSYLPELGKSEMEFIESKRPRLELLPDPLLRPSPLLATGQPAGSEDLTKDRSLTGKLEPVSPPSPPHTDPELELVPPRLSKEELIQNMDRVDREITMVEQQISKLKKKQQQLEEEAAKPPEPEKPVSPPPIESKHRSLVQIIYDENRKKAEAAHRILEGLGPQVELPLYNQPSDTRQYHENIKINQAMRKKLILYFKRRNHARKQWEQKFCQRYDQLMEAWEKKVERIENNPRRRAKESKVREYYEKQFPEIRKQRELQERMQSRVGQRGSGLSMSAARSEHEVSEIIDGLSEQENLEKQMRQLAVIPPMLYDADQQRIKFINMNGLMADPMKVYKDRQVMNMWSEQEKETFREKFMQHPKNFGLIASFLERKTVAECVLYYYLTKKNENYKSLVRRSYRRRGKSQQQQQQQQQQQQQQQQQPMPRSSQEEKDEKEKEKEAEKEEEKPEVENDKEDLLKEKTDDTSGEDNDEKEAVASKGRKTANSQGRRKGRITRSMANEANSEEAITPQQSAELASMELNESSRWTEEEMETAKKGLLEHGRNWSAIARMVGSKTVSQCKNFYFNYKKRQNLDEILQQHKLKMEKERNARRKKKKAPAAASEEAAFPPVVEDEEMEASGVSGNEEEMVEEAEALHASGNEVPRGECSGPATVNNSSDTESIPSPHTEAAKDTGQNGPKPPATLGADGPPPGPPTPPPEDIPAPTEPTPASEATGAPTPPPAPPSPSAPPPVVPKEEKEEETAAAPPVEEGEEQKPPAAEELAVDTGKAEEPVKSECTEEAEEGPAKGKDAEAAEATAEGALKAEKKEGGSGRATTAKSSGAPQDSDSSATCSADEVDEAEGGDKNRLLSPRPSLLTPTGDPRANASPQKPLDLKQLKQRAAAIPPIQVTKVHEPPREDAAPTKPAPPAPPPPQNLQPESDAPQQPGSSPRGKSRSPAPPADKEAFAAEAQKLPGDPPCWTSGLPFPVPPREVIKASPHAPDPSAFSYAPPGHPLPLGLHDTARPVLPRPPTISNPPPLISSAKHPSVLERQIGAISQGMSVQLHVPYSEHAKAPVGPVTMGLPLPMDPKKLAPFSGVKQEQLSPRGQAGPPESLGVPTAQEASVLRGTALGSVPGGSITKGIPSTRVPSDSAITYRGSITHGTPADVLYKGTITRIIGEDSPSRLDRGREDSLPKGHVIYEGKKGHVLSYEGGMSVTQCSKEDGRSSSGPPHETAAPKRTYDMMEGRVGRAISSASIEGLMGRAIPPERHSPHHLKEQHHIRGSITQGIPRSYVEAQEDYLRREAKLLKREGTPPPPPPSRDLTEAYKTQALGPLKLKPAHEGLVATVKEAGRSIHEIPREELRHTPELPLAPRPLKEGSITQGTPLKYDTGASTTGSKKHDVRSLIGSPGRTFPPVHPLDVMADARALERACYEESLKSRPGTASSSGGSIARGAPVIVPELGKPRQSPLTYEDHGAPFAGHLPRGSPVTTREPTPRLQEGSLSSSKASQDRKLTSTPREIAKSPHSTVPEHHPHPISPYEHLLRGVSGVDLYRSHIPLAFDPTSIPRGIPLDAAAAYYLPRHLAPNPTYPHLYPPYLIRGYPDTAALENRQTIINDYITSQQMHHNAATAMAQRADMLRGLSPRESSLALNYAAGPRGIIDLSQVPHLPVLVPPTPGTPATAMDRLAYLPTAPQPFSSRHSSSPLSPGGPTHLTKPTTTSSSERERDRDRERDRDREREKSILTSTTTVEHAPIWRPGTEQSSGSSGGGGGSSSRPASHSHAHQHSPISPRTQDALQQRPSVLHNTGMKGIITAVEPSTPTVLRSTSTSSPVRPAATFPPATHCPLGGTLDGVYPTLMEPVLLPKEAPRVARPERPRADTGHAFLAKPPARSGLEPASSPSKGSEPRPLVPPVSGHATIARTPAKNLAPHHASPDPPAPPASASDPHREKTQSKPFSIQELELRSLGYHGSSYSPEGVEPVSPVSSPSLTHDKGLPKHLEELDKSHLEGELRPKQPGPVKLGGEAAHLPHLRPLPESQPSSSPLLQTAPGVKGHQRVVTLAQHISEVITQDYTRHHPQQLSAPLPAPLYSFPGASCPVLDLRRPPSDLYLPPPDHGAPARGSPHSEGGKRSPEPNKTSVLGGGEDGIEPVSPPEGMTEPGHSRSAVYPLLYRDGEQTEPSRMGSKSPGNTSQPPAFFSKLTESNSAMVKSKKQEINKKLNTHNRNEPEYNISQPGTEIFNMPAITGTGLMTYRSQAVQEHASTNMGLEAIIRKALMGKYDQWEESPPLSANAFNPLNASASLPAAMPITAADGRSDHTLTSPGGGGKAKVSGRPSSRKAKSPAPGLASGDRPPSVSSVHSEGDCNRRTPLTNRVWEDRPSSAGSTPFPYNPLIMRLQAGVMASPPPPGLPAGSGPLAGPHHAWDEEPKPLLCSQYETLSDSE

[21] = target: Oxytocin receptor (Homo sapiens, UniProt P30559); assay: Counterscreen for vasopressin 1 receptor (V1R) agonists: Fluorescence-based cell-based high throughput dose response assay for agonists of the Oxytocin Receptor (OXTR). [Related pubchem assays: 2435 (Primary screen (OXTR agonists in singlicate)), 434964 (Confirmation screen (V1R agonists in triplicate)), 434969 (Counterscreen (OXTR agonists in …; assay type: functional
Sequence of Oxytocin receptor (P30559 whole entry): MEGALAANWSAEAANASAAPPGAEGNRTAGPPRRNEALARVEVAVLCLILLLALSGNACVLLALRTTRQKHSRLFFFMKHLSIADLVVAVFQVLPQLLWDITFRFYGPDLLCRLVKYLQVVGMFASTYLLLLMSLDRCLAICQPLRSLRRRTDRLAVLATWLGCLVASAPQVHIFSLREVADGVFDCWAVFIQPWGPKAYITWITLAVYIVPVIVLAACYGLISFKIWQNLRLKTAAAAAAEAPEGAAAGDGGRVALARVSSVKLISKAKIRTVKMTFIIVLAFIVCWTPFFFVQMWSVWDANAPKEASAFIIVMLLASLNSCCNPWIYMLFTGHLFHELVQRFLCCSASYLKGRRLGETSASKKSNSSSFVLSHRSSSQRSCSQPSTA

[22] = target: Vasopressin V1a receptor (Homo sapiens, UniProt P37288); assay: Fluorescence-based cell-based high throughput dose response screening assay for agonists of the vasopressin 1 receptor (V1R).; assay type: functional

Sequence of Calpain-2 catalytic subunit (P43367 whole entry): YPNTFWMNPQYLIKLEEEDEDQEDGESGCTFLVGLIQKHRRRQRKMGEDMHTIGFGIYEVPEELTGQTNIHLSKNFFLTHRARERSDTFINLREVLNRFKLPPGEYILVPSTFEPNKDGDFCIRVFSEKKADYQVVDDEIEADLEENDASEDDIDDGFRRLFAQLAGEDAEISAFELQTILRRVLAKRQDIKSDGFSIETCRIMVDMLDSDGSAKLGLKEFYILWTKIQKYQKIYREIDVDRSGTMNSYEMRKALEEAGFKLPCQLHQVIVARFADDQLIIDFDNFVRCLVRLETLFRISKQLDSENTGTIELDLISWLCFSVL

C=CCNC(=S)N/N=C/c1cccc([N+](=O)[O-])c1
IC50 [1]: 6.63 µM (active)

Cc1cccc(Nc2nc(N)nc(CCl)n2)c1C
IC50 [2]: 9.45 µM (active)
IC50 [3]: > 20 µM (inactive)
EC50 [4]: 6.44 µM (active)
IC50 [5]: 4.04 µM (active)
CC50 [6]: 2.11 µM (active)
EC50 [7]: > 75 µM (inconclusive)
EC50 [8]: 2.19 µM (inconclusive)
EC50 [9]: 0.65 µM (active)
IC50 [10]: 0.628 µM (active)
IC50 [11]: 9.47 µM (active)
IC50 [12]: 9.12 µM (active)
EC50 [13]: 2.02 µM (active)
IC50 [14]: > 20 µM (inactive)
EC50 [15]: 10.8 µM (active)

COc1cccc(-c2cc(C(F)(F)F)nc(S(C)(=O)=O)n2)c1
IC50 [16]: 6.78 µM (active)
IC50 [17]: 2.24 µM (active)
IC50 [18]: > 100 µM (not active)

Cc1ccc2oc(=O)cc(CN3CCCCC3)c2c1
IC50 [19]: 7.54 µM (active)
IC50 [20]: > 39.8 µM (not active)

CCN(CC)c1ccc2cc(C(N)=O)/c(=N\NC(=O)c3ccncc3)oc2c1
EC50 [21]: 21.8 µM (not active)
EC50 [22]: 18.6 µM (not active)
